Experiment [1] relates to sebaceous glands. Briefly: Activity of PPAR activators on the size of sebaceous glands, daily topical application to rat back skin. The experiment is classed as in vivo, female Fuzzy or OFA rats. The settings on record: once daily 4 weeks, control (acetone) = 1.00. Here is the method:
The evaluation of the activity of the compounds according to the invention is performed by daily topical application (once a day, weekends included) to the skin of the back of female Fuzzy or OFA rats, for 4 weeks. 30 animals of 9/10 weeks old were divided into groups of 6 animals.
The evaluation method entails weighing the animals at the start and end of the test and in evaluating the size of the sebaceous glands on epidermal leaflets.
The animals are euthanized and the treated area (back) is then shaved and defatted. The 8 mm biopsy samples are then incubated in 1 M NaBr. After separating out the epidermis, photographs are taken of the sebaceous glands and the images obtained are then analyzed using the Tina software (quantification of the area of the sebaceous glands, arbitrary area unit [mm^2]), version 2.09 g sold by Raytest GmbH.
The statistical analysis is performed according to Student's t test (XL software sold by Microsoft)
The results are expressed as the mean of the inductions (“Mean RI”) with the value of the standard error of the mean (“SEM”).
Student's t test (“stat”): NS not significant • *p<0.05 • **p<0.01 • ***p<0.001

The target of experiment [2] is T1, PPAR gamma (Homo sapiens, UniProt P37231).
T1 sequence (P37231 238-505 limits assumed): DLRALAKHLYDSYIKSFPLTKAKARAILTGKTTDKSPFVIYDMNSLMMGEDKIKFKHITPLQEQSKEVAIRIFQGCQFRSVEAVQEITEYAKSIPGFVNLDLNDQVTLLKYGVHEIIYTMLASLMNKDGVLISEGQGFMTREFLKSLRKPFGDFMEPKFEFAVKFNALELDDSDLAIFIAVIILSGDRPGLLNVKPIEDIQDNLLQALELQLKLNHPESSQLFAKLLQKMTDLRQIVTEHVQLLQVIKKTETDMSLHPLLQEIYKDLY
In words: PPAR transactivation test, PPAR gamma (HeLN reporter cells). The experiment is classed as cell-based. The settings on record: luciferase reporter, Gal-hPPAR gamma, n.a. means not active, read-out: PPAR gamma Kd app. The protocol:
(§1) Activation of the PPAR receptors with an agonist (activator) in HeLN cells leads to the expression of a reporter gene, luciferase, which, in the presence of a substrate, generates light. The modulation of the PPAR receptors is measured by quantifying the luminescence produced after incubating the cells in the presence of a reference agonist. The ligands displace the agonist from its site. The measurement of the activity is performed by quantifying the light produced. This measurement makes it possible to determine the modulatory activity of the compounds according to the invention by determining the constant that represents the affinity of the molecule for the PPAR receptor. This value can fluctuate according to the basal activity and the expression of the receptor: it is referred to as Kd apparent (KdApp in nM).
(§2) Measurements are also taken for the total agonist controls with the same products.
(§3) The HeLN cell lines used are stable transfectants comprising the plasmids ERE-βGlob-Luc-SV-Neo (reporter gene) and PPAR (α, δ, γ) Gal-hPPAR. These cells are inoculated in 96-well plates at a rate of 10,000 cells per well in 100 µl of DMEN medium without phenol red and supplemented with 10% defatted calf serum. The plates are then incubated at 37° C. and 7% CO2 for 16 hours.
(§4) The various dilutions of the test products and of the reference ligand are added in a proportion of 5 µl per well. The plates are then incubated for 18 hours at 37° C., 7% CO2. The culture medium is removed by upturning and 100 μl of a 1:1 PBS/luciferin mixture are added to each well. After 5 minutes, the plates are read using a luminescence reader.
For orientation: Reporter assays use an easily measured gene product as a stand-in for the process of interest.

Experiment [3] deals with T2, PPARs delta (Homo sapiens, UniProt Q03181).
T2 sequence (Q03181 171-441 limits assumed): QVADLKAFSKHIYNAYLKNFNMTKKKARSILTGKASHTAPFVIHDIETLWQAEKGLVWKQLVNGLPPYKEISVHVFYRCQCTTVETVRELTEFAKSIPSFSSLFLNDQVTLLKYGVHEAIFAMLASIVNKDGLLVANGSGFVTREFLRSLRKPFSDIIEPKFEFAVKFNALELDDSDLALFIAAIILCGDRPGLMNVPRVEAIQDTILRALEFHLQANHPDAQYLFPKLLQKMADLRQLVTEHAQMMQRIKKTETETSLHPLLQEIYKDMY
In words: PPAR transactivation test, PPAR delta (HeLN reporter cells). The settings on record: luciferase reporter, Gal-hPPAR delta, n.a. means not active, read-out: PPARs delta Kd app. Format: cell-based. The protocol:
as §1, §2, §3, §4

For experiment [4], the target named is T3, PPAR alpha (Homo sapiens, UniProt Q07869).
T3 sequence (Q07869 200-468 limits assumed): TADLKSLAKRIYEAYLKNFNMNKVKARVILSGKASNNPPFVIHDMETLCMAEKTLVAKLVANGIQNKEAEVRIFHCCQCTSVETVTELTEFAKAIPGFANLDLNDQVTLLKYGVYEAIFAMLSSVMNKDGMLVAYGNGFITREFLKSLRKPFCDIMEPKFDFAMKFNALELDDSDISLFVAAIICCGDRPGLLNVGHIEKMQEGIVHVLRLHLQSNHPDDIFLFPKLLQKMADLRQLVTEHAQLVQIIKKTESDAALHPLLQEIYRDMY
Briefly: PPAR transactivation test, PPAR alpha (HeLN reporter cells). Format: cell-based. The conditions noted are these: luciferase reporter, Gal-hPPAR alpha, n.a. means not active, read-out: PPAR alpha Kd app. The protocol: as §1, §2
The HeLN cell lines used are stable transfectants comprising the plasmids ERE-βGlob-Luc-SV-Neo (reporter gene) and PPAR (α, δ, γ) Gal-hPPAR. These cells are inoculated in 96-well plates at a rate of 10,000 cells per well in 100 µl of DMEN medium without phenol red and supplemented with 10% defatted calf serum. […]
The various dilutions of the test products and of the reference ligand are added in a proportion of 5 µl per well. […] After 5 minutes, the plates are read using a luminescence reader.

This is an account of results in patent US20070065471A1, “Cosmetic/dermatological applications of PPAR receptor activators” (GALDERMA RESEARCH & DEVELOPMENT S.N.C., priority 2003, published 2007).

SMILES strings stand for the structures.

With `CN(CCOc1ccc(CC2SC(=O)NC2=O)cc1)c1ccccn1` (centres unmarked) [Example 1, 5-{4-[2-(methylpyrid-2-ylamino)ethoxy]-benzyl}thiazolidine-2,4-dione], the “Mean RI (sebaceous gland size)” value in experiment [1] (Study 1, 0.1% topical) amounted to 0.73; in experiment [1] (Study 1, 0.3% topical), 0.55; in experiment [1] (Study 1, 1% topical) it was 0.51; in experiment [1] (Study 2, 0.1% topical), 0.83.
Consider `COCCOCOc1ccc2cc(C(=O)N(C)Cc3cccc(-c4ccc(CC5SC(=O)NC5=O)cc4)c3)ccc2c1` (centres unmarked) [Example 2, N-methyl-N-[4′-(2,4-dioxothiazolidin-5-yl-methyl)biphenyl-3-ylmethyl]-6-(2-methoxyethoxymethoxy)-naphthalene-2-carboxamide], for which the “Mean RI (sebaceous gland size)” value turned out to be 0.82 in experiment [1] (Study 2, 0.003% topical); 0.75 in experiment [1] (Study 2, 0.03% topical); 0.65 in experiment [1] (Study 2, 0.3% topical); 0.66 in experiment [1] (Study 3, 0.3% topical); 0.67 in experiment [1] (Study 4, 0.3% topical). Further, the Kd in experiment [2] is 0.0005 µM.
As for `CCCCCCCNC(=O)N(C)c1cccc(-c2ccc(C[C@H](Nc3ccccc3C(=O)c3ccccc3)C(=O)O)cc2)c1` [Example 3, (S)-3-[3′-(3-heptyl-1-methylureido)biphenyl4-yl]-2-[2-(1-phenylmethanoyl)phenylamino]-propionic acid], the Kd in experiment [3] stood at 0.25 µM; in experiment [2], 0.015 µM. Besides, the “Mean RI (sebaceous gland size)” value is recorded as 1.02 in experiment [1] (Study 3, 0.01% topical); 0.84 in experiment [1] (Study 3, 0.1% topical); 0.74 in experiment [1] (Study 3, 1% topical).
`CCCOc1ccc2cc(C(=O)N(C)Cc3cccc(-c4ccc(CC5SC(=O)NC5=O)cc4)c3)ccc2c1` (centres unmarked) [Example 4, N-methyl-N-[4′-(2,4-dioxothiazolidin-5-yl-methyl)biphenyl-3-ylmethyl)-6-propoxynaphthalene-2-carboxamide]: the Kd in experiment [2] is 0.001 µM.
In the case of `CCCCCCCC(=O)N(C)Cc1cccc(-c2ccc(C[C@H](OCC)C(=O)O)cc2)c1` [Example 5, (S)-2-ethoxy-3-{3′-[(methyloctanoylamino)methyl]biphenyl-4-yl}propionic acid], the Kd in experiment [3] was 4 µM; in experiment [4], 0.5 µM; in experiment [2], 0.002 µM.
In the case of `COCCOCOc1ccc2cc(C(=O)N(C)Cc3cccc(-c4ccc(Nc5ccccc5C(=O)O)cc4)c3)ccc2c1` [Example 6, 2-{3′-[({1-[6-(2-methoxyethoxymethoxy)-naphthalen-2-yl]methanoyl}methylamino)methyl]biphenyl-4-ylamino}benzoic acid], the Kd in experiment [2] turned out to be 0.03 µM.
In the case of `CN(C)c1ccc(NC(=O)N(C)c2cccc(-c3ccc(C[C@H](Nc4ccccc4C(=O)c4ccccc4)C(=O)O)cc3)c2)cc1` [Example 7, (S)-3-{3′-[3(4-dimethylaminophenyl)-1-methylureido]biphenyl-4-yl}-2-[2-(1-phenylmethanoyl)-phenylamino]propionic acid], the Kd was 4 µM in experiment [3] and 0.008 µM in experiment [2].
On to `CCCc1nnc([C@H](Cc2ccc(OCCc3nc(-c4ccccc4)oc3C)cc2)Nc2ccccc2C(=O)c2ccccc2)o1` [Negative Control, 1-{2-[(S)-2-{4-[2-(5-methyl-2-phenyloxazol-4-yl)ethoxy]phenyl}-1-(5-propyl[1,3,4]oxadiazol-2-yl)ethylamino]phenyl}-1-phenylmethanone, reference compound], for which the “Mean RI (sebaceous gland size)” value in experiment [1] (Study 4, 0.01% topical) turned out to be 1.12; in experiment [1] (Study 4, 0.1% topical), 1.08; in experiment [1] (Study 4, 1% topical) it was 1.08.
Take `C[C@]12CCC(=O)CC1CCC1C2CC[C@@]2(C)C1CC[C@@H]2O` (stereo partly drawn) [Positive Control, 5a-androstan-17β-ol-3-one, reference compound]: the “Mean RI (sebaceous gland size)” value in experiment [1] (Study 1, 0.3% topical) is given as 1.73.
